From patent US6358885B1, “Substituted phenylheterocyclic herbicides” (Mississippi State University, priority 1992, dated 2002)

Legend:
wheat = assay: Test C preemergence/postemergence greenhouse plant response rating 0 to 100; format: in vivo, Triticum aestivum; conditions: POSTEMERGENCE; for Plant response rating, Wheat: 0 to 100 scale
Description: (§1) The compounds evaluated in this test were formulated in a non-phytoxic solvent and applied to the soil surface before plant seedlings emerged (preemergence application), to water that covered the soil surface (flood application), and to plants that were in the one-to-four leaf stage (postemergence application). A sandy loam soil was used for the preemergence and postemergence tests, while a silt loam soil was used in the flood test. Water depth was approximately 2.5 cm for the flood test and was maintained at this level for the duration of the test. Plant species in the preemergence and postemergence tests consisted of barley (Hordeum vulgare), bedstraw (Galium aparine), blackgrass (Alopecurus myosuroides), chickweed (Stellaria media), corn (Zea mays), cotton (Gossypium hirsutum), crabgrass (Digitaria sanguinalis), downy brome (Bromus tectorum), giant foxtail (Setaria faberii), lambsquarters (Chenopodium album), morningglory (Ipomoea hederacea), pigweed ([…]), rape (Brassica napus), ryegrass (Lolium multiflorum), sorghum (Sorghum bicolor), soybean (Glycine max), speedwell (Veronica persica), sugar beet (Beta vulgaris), velvetleaf (Abutilon theophrasti), wheat (Triticum aestivum), wild buckwheat (Polygonum convolvulus), and wild oat (Avena fatua). All plant species were planted one day before application of the compound for the preemergence portion-of this test. Plantings of these species were adjusted to produce plants of appropriate size for the post-emergence portion of the test. […] All plant species were grown using normal greenhouse practices. Visual evaluations of injury expressed on treated plants, when compared to untreated controls, were recorded approximately fourteen to twenty one days after application of the test compound. […] A dash (-) response means no test result.

corn [1] = assay: Test B preemergence/postemergence greenhouse plant response rating 0 to 10; format: in vivo, Zea mays; conditions: 0 to 10 scale
How it was run: (§2)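 Test chemicals, dissolved in a non-phytotoxic solvent, were applied to soil at planting and, at the same time, over foliage of seedlings at the one to four leaf stage.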

velvetleaf [2] = assay: Test C preemergence/postemergence greenhouse plant response rating 0 to 100; format: in vivo, Abutilon theophrasti; conditions: POSTEMERGENCE; for Plant response rating, Velvetleaf: 0 to 100 scale
Description: as §1

morningglory [3] = assay: Test B preemergence/postemergence greenhouse plant response rating 0 to 10; format: in vivo, Ipomoea hederacea; conditions: 0 to 10 scale
How it was run: as §2

morningglory [4] = assay: Test C preemergence/postemergence greenhouse plant response rating 0 to 100; format: in vivo, Ipomoea hederacea; conditions: POSTEMERGENCE; for Plant response rating, Morningglory: 0 to 100 scale
Description: as §1

soybean = assay: Test B preemergence/postemergence greenhouse plant response rating 0 to 10; format: in vivo, Glycine max; conditions: 0 to 10 scale
How it was run: as §2

corn [5] = assay: Test C preemergence/postemergence greenhouse plant response rating 0 to 100; format: in vivo, Zea mays; conditions: POSTEMERGENCE; for Plant response rating, Corn: 0 to 100 scale
Description: as §1

sugar beet = assay: Test B preemergence/postemergence greenhouse plant response rating 0 to 10; format: in vivo, Beta vulgaris; conditions: 0 to 10 scale
How it was run: as §2

chickweed = assay: as above; format: in vivo, Stellaria media; conditions: 0 to 10 scale
How it was run: as §2

lambsquarters = assay: Test C preemergence/postemergence greenhouse plant response rating 0 to 100; format: in vivo, Chenopodium album; conditions: POSTEMERGENCE; for Plant response rating Lambsquarters: 0 to 100 scale
Description: as §1

velvetleaf [6] = assay: Test B preemergence/postemergence greenhouse plant response rating 0 to 10; format: in vivo, Abutilon theophrasti; conditions: 0 to 10 scale
How it was run: as §2

crabgrass = assay: Test C preemergence/postemergence greenhouse plant response rating 0 to 100; format: in vivo, Digitaria sanguinalis; conditions: POSTEMERGENCE; for Plant response rating, Crabgrass: 0 to 100 scale
Description: as §1

C#CCN1C(=O)COc2cc(F)c(-c3nn4c(c3Br)CCCC4)cc21 [Compound 56]
Plant response rating, Wheat (wheat; 62 g/ha): 60
Plant response rating (0 to 100), Wheat (wheat; Rate 1 g/ha): 30
Plant response rating (0 to 100), Wheat (wheat; Rate 4 g/ha): 50
Plant response rating (0 to 100), Wheat (wheat; Rate 16 g/ha): 60
Plant response rating, Corn (corn [1]; POSTEMERGENCE, Rate 50 g/ha): 3
Plant response rating, Corn (corn [1]; PREEMERGENCE, Rate 50 g/ha): 0
Plant response rating, Velvetleaf (velvetleaf [2]; 62 g/ha): 100
Plant response rating (0 to 100), Velvetleaf (velvetleaf [2]; Rate 1 g/ha): 100
Plant response rating (0 to 100), Velvetleaf (velvetleaf [2]; Rate 4 g/ha): 100
Plant response rating (0 to 100), Velvetleaf (velvetleaf [2]; Rate 16 g/ha): 100
Plant response rating, Morningglory (morningglory [3]; POSTEMERGENCE, Rate 10 g/ha): 10
Plant response rating, Morningglory (morningglory [3]; POSTEMERGENCE, Rate 50 g/ha): 9
Plant response rating, Morningglory (morningglory [3]; PREEMERGENCE, Rate 50 g/ha): 6
Plant response rating, Morningglory (morningglory [4]; 62 g/ha): 100
Plant response rating (0 to 100), Morningglory (morningglory [4]; Rate 1 g/ha): 50
Plant response rating (0 to 100), Morningglory (morningglory [4]; Rate 4 g/ha): 100
Plant response rating (0 to 100), Morningglory (morningglory [4]; Rate 16 g/ha): 100
Plant response rating, Soybean (soybean; POSTEMERGENCE, Rate 10 g/ha): 9
Plant response rating, Soybean (soybean; POSTEMERGENCE, Rate 50 g/ha): 8
Plant response rating, Soybean (soybean; PREEMERGENCE, Rate 50 g/ha): 0
Plant response rating, Corn (corn [5]; 62 g/ha): 50
Plant response rating (0 to 100), Corn (corn [5]; Rate 1 g/ha): 20
Plant response rating (0 to 100), Corn (corn [5]; Rate 4 g/ha): 30
Plant response rating (0 to 100), Corn (corn [5]; Rate 16 g/ha): 40
Plant response rating, Sugar beet (sugar beet; POSTEMERGENCE, Rate 10 g/ha): 10
Plant response rating, Sugar beet (sugar beet; POSTEMERGENCE, Rate 50 g/ha): 10
Plant response rating, Sugar beet (sugar beet; PREEMERGENCE, Rate 50 g/ha): 9
Plant response rating, Chickweed (chickweed; POSTEMERGENCE, Rate 10 g/ha): 9
Plant response rating, Chickweed (chickweed; POSTEMERGENCE, Rate 50 g/ha): 10
Plant response rating, Chickweed (chickweed; PREEMERGENCE, Rate 10 g/ha): 9
Plant response rating, Chickweed (chickweed; PREEMERGENCE, Rate 50 g/ha): 10
Plant response rating Lambsquarters (lambsquarters; 62 g/ha): 100
Plant response rating (0 to 100), Lambsquarters (lambsquarters; Rate 1 g/ha): 85
Plant response rating (0 to 100), Lambsquarters (lambsquarters; Rate 4 g/ha): 100
Plant response rating (0 to 100), Lambsquarters (lambsquarters; Rate 16 g/ha): 100
Plant response rating, Velvetleaf (velvetleaf [6]; POSTEMERGENCE, Rate 10 g/ha): 9
Plant response rating, Velvetleaf (velvetleaf [6]; POSTEMERGENCE, Rate 50 g/ha): 9
Plant response rating, Velvetleaf (velvetleaf [6]; PREEMERGENCE, Rate 50 g/ha): 10
Plant response rating, Crabgrass (crabgrass; 62 g/ha): 20
Plant response rating (0 to 100), Crabgrass (crabgrass; Rate 1 g/ha): 0
Plant response rating (0 to 100), Crabgrass (crabgrass; Rate 4 g/ha): 0
Plant response rating (0 to 100), Crabgrass (crabgrass; Rate 16 g/ha): 10

CCOC(=O)COc1cc(-c2nn3c(c2Cl)CCCC3)c(F)cc1Cl [Compound 42]
Plant response rating, Wheat (wheat; 62 g/ha): 30
Plant response rating, Wheat (wheat; 125 g/ha): 40
Plant response rating (0 to 100), Wheat (wheat; Rate 16 g/ha): 10
Plant response rating (0 to 100), Wheat (wheat; Rate 31 g/ha): 20
Plant response rating, Corn (corn [1]; POSTEMERGENCE, Rate 50 g/ha): 7
Plant response rating, Corn (corn [1]; POSTEMERGENCE, Rate 200 g/ha): 9
Plant response rating, Corn (corn [1]; PREEMERGENCE, Rate 50 g/ha): 0
Plant response rating, Corn (corn [1]; Rate 200 g/ha, PREEMERGENCE): 0
Plant response rating, Velvetleaf (velvetleaf [2]; 62 g/ha): 100
Plant response rating, Velvetleaf (velvetleaf [2]; 125 g/ha): 100
Plant response rating (0 to 100), Velvetleaf (velvetleaf [2]; Rate 16 g/ha): 100
Plant response rating (0 to 100), Velvetleaf (velvetleaf [2]; Rate 31 g/ha): 100
Plant response rating, Morningglory (morningglory [3]; POSTEMERGENCE, Rate 50 g/ha): 9
Plant response rating, Morningglory (morningglory [3]; PREEMERGENCE, Rate 50 g/ha): 0
Plant response rating, Morningglory (morningglory [3]; Rate 200 g/ha, POSTEMERGENCE): 10
Plant response rating, Morningglory (morningglory [3]; Rate 200 g/ha, PREEMERGENCE): 3
Plant response rating, Morningglory (morningglory [4]; 62 g/ha): 100
Plant response rating, Morningglory (morningglory [4]; 125 g/ha): 100
Plant response rating (0 to 100), Morningglory (morningglory [4]; Rate 16 g/ha): 90
Plant response rating (0 to 100), Morningglory (morningglory [4]; Rate 31 g/ha): 95
Plant response rating, Soybean (soybean; POSTEMERGENCE, Rate 50 g/ha): 4
Plant response rating, Soybean (soybean; PREEMERGENCE, Rate 50 g/ha): 0
Plant response rating, Soybean (soybean; Rate 200 g/ha, POSTEMERGENCE): 5
Plant response rating, Soybean (soybean; Rate 200 g/ha, PREEMERGENCE): 0
Plant response rating, Corn (corn [5]; 62 g/ha): 40
Plant response rating, Corn (corn [5]; 125 g/ha): 40
Plant response rating (0 to 100), Corn (corn [5]; Rate 16 g/ha): 20
Plant response rating (0 to 100), Corn (corn [5]; Rate 31 g/ha): 30
Plant response rating, Sugar beet (sugar beet; POSTEMERGENCE, Rate 50 g/ha): 10
Plant response rating, Sugar beet (sugar beet; PREEMERGENCE, Rate 50 g/ha): 10
Plant response rating, Sugar beet (sugar beet; Rate 200 g/ha, POSTEMERGENCE): 10
Plant response rating, Sugar beet (sugar beet; Rate 200 g/ha, PREEMERGENCE): 10
Plant response rating, Chickweed (chickweed; POSTEMERGENCE, Rate 50 g/ha): 4
Plant response rating, Chickweed (chickweed; POSTEMERGENCE, Rate 200 g/ha): 8
Plant response rating, Chickweed (chickweed; PREEMERGENCE, Rate 50 g/ha): 0
Plant response rating, Chickweed (chickweed; Rate 200 g/ha, PREEMERGENCE): 0
Plant response rating Lambsquarters (lambsquarters; 62 g/ha): 100
Plant response rating Lambsquarters (lambsquarters; 125 g/ha): 100
Plant response rating (0 to 100), Lambsquarters (lambsquarters; Rate 16 g/ha): 100
Plant response rating (0 to 100), Lambsquarters (lambsquarters; Rate 31 g/ha): 100
Plant response rating, Velvetleaf (velvetleaf [6]; POSTEMERGENCE, Rate 50 g/ha): 10
Plant response rating, Velvetleaf (velvetleaf [6]; PREEMERGENCE, Rate 50 g/ha): 0
Plant response rating, Velvetleaf (velvetleaf [6]; Rate 200 g/ha, POSTEMERGENCE): 10
Plant response rating, Velvetleaf (velvetleaf [6]; Rate 200 g/ha, PREEMERGENCE): 6
Plant response rating, Crabgrass (crabgrass; 62 g/ha): 10
Plant response rating, Crabgrass (crabgrass; 125 g/ha): 40
Plant response rating (0 to 100), Crabgrass (crabgrass; Rate 16 g/ha): 10
Plant response rating (0 to 100), Crabgrass (crabgrass; Rate 31 g/ha): 10
